From ChEMBL document CHEMBL2203090, “Synthesis and Evaluation of 5-Fluoro-2-aryloxazolo[5,4-b]pyridines as β-Amyloid PET Ligands and Identification of MK-3328” (ACS Med Chem Lett, 2011) come the findings set out here.

The subject of one data set is P-gp. The data set can be described thus: Activity at human P-gp expressed in LLC-PK1 cells assessed as efflux ratio of apparent permeability. Type of data set: ADME, cell-based.
The subject of the next data set is P-gp (Homo sapiens). Put plainly: Activity at human P-gp expressed in pig LLC-PK1 cells assessed as passive apparent permeability.
Data set [1] concerns the target T1, Amyloid-beta precursor protein (Homo sapiens, UniProt P05067). The data set can be described thus: Binding affinity to human amyloid beta plaque.
Data set [2] concerns the target T1, Amyloid-beta precursor protein. The data set can be described thus: […] amyloid beta plaque in cortex homogenate isolated from Alzheimer disease patient at 6.4 nM after 90 mins by scintillation counting in presence of 5-Fluoro-2-(1-methyl-1H-indol-5-yl)-oxazolo[5,4-b]pyridine. Type of data set: tissue-based. Particulars: tested as the 3H-labelled form.

Data set [3] has the same target. Put plainly: […] amyloid beta plaque in cortex homogenate isolated from Alzheimer disease patient after 90 mins by scintillation counting. Particulars: for Bmax: tested as the 3H-labelled form. Type of data set: tissue-based.
Data set [4] has the same target. The data set can be described thus: Binding affinity to amyloid beta plaque in cortex homogenate isolated from Alzheimer disease patient at 5 nM after 90 mins by autoradiography. Type of data set: tissue-based. Particulars: tested as the 3H-labelled form.
Data set [5] has the same target. The data set can be described thus: Ratio of Bmax to Kd for amyloid beta plaque in cortex homogenate isolated from Alzheimer disease patient. Type of data set: tissue-based. Particulars: tested as the 3H-labelled form.
Data set [6] has the same target. The data set can be described thus: […] amyloid beta plaque in cortex homogenate isolated from Alzheimer disease patient at 9.6 nM after 90 mins by scintillation counting in presence of 5-Fluoro-2-(1-methyl-1H-pyrrolo[2,3-b]pyridin-5-yl)-oxazolo[5,4-b]pyridine. Type of data set: tissue-based. Particulars: tested as the 3H-labelled form.

Data set [7] has the same target. The data set can be described thus: […] amyloid beta plaque in cortex homogenate isolated from Alzheimer disease patient at 4.2 nM after 90 mins by scintillation counting in presence of [4-(5-Fluoro-oxazolo[5,4-b]pyridin-2-yl)-phenyl]-dimethyl-amine. Type of data set: tissue-based. Particulars: tested as the 3H-labelled form.
A further data set has as its system Brain. Put plainly: Drug uptake in rhesus monkey brain white matter up to 90 mins. Type of data set: ADME, tissue-based, Macaca mulatta. Particulars: in vivo, 1.5 h.
Data set [8] can be described thus: Drug uptake in rhesus monkey cerebellum up to 90 mins. Type of data set: ADME, tissue-based, Macaca mulatta. Particulars: in vivo, 1.5 h.
The nature of data set [9]: Drug uptake in rhesus monkey cerebellum after 90 mins. Type of data set: ADME, tissue-based, Macaca mulatta. Particulars: in vivo, 1.5 h.
Data set [10] is described as follows: Drug uptake in rhesus monkey cortex after 90 mins. Type of data set: ADME, tissue-based, Macaca mulatta. Particulars: in vivo, 1.5 h.
Data set [11] in a line: Drug uptake in rhesus monkey cortex up to 90 mins. Type of data set: ADME, tissue-based, Macaca mulatta. Particulars: in vivo, 1.5 h.

Active and inactive are the calls of the source. The rule behind the calls is not given here.

T1 sequence (P05067 whole entry): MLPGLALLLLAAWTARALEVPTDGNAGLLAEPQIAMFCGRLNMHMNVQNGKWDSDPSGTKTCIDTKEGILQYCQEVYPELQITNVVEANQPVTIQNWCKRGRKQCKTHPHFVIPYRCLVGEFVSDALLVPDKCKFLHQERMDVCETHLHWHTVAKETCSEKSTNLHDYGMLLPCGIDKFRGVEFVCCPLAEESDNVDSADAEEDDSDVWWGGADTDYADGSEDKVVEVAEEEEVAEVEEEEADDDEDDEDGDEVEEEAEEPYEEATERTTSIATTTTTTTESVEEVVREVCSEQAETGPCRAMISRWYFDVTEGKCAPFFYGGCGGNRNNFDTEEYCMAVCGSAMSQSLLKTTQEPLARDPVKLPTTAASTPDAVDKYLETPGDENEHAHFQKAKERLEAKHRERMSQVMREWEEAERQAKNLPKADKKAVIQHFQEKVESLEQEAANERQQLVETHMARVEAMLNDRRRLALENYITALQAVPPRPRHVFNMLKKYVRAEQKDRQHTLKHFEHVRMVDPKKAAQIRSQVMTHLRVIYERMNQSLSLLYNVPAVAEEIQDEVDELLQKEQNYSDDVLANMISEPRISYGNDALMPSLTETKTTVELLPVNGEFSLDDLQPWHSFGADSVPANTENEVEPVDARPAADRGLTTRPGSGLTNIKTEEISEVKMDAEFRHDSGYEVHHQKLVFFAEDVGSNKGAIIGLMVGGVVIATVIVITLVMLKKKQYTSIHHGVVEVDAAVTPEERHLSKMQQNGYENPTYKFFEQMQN

For `COc1ccc(-c2nc3ccc(F)nc3o2)cc1`, the efflux ratio in the data set on P-gp was less than 3. For the same compound, in the data set with P-gp (Homo sapiens), the Papp was greater than 20 ×10⁻⁶ cm/s. For the same compound, the IC50 in data set [1] came to 0.0325 µM.
The like results for `Cn1cnc2cc(-c3nc4ccc(F)nc4o3)ccc21` were, in that order, less than 3, greater than 20 ×10⁻⁶ cm/s and greater than 1 µM.
Taken in the same sequence, the figures for `Fc1ccc2nc(-c3ccc4ncsc4c3)oc2n1` were less than 3, greater than 20 ×10⁻⁶ cm/s and 0.0358 µM.
The like results for `CN1CCc2cc(-c3nc4ccc(F)nc4o3)cnc21` were, in that order, less than 3, greater than 20 ×10⁻⁶ cm/s and 0.047 µM.
For the compound `Cn1ccc2cc(-c3nc4ccc(F)nc4o3)ccc21`, in [2], the Activity stood at 50%. Besides, in data set [3], the Bmax worked out at 1450 nM. Also, the efflux ratio in the data set on P-gp was less than 3. The outcome in data set [4] was inactive. In the data set on P-gp (Homo sapiens), the apparent permeability coefficient (Papp) is greater than 20 ×10⁻⁶ cm/s. In data set [5], the Ratio came to 232. The IC50 in [1] was found to be 0.008 µM.
Regarding `[3H]C([3H])([3H])n1ccc2cc(-c3nc4ccc(F)nc4o3)ccc21`, the Kd in data set [3] was 0.0064 µM.
Take `Cn1ccc2cc(-c3nc4ccc(F)nc4o3)ncc21`: in the data set on P-gp, the efflux ratio was less than 3. Also, the Papp with P-gp (Homo sapiens) was greater than 20 ×10⁻⁶ cm/s. Also, in data set [1], the IC50 is greater than 1 µM.
In the case of `Cn1ccc2cc(-c3nc4ccc(F)nc4o3)cnc21`, the Activity in data set [6] stood at 35%. For the same compound, in data set [3], the Bmax came out at 1100 nM. In addition, in the data set on P-gp, the efflux ratio is less than 3. For the same compound, the result in data set [4] was Active. The Papp in the data set with P-gp (Homo sapiens) was greater than 20 ×10⁻⁶ cm/s. The Ratio in [5] stood at 117. This compound had a half-inhibitory concentration (IC50) in [1] of 0.0105 µM.
Consider `CN(C)c1ccc(-c2nc3ccc(F)nc3o2)cc1`, for which the Bmax in data set [3] is 2090 nM. Besides, the efflux ratio in the data set on P-gp is less than 3. The outcome in data set [4] was Active. Moreover, the Papp with P-gp (Homo sapiens) is greater than 20 ×10⁻⁶ cm/s. In [5], the Ratio worked out at 464. Further, in [1], the IC50 is 0.004 µM. The Activity in [7] came out at 50%.
For the compound `Fc1ccc2nc(-c3cnc4[nH]ccc4c3)oc2n1`, the efflux ratio in the data set with P-gp is less than 3. In the data set with P-gp (Homo sapiens), the Papp is greater than 20 ×10⁻⁶ cm/s. In addition, the IC50 in [1] amounted to 0.0257 µM.
The like results for `Cn1ncc2cc(-c3nc4ccc(F)nc4o3)cnc21` were, in that order, less than 3, greater than 20 ×10⁻⁶ cm/s and 0.0302 µM.
Regarding `CN(C)c1ccc(-c2nc3ccc(F)nc3o2)cn1`, the efflux ratio in the data set with P-gp is less than 3. In the data set on P-gp (Homo sapiens), the Papp was greater than 20 ×10⁻⁶ cm/s. The compound further came in with an IC50 in data set [1] of 0.0418 µM.
As for `Cn1ccc2cc(-c3nc4ccc([18F])nc4o3)cnc21`, the Drug uptake result (in the data set on Brain; in [9]; in [10]) was “Not Active” throughout. Besides, the SUV is listed as 3 in [8] and 2.7 in data set [11].
With `CNc1ccc(-c2nc3ccc(F)nc3o2)cc1`, the efflux ratio with P-gp was less than 3. Moreover, the Papp with P-gp (Homo sapiens) was greater than 20 ×10⁻⁶ cm/s. The compound further showed an IC50 in [1] of 0.0231 µM.
Taken in the same sequence, the figures for `Cn1ncc2cc(-c3nc4ccc(F)nc4o3)ccc21` were less than 3, greater than 20 ×10⁻⁶ cm/s and 0.0487 µM.
As for `Fc1ccc2nc(-c3ccc4[nH]ccc4c3)oc2n1`, the efflux ratio with P-gp is less than 3. The apparent permeability coefficient (Papp) with P-gp (Homo sapiens) was greater than 20 ×10⁻⁶ cm/s. In addition, in data set [1], the IC50 was 0.0138 µM.
`[3H]C([3H])([3H])n1ccc2cc(-c3nc4ccc(F)nc4o3)cnc21` showed a dissociation constant Kd in data set [3] of 0.0096 µM.
Take `[3H]C([3H])([3H])N(C)c1ccc(-c2nc3ccc(F)nc3o2)cc1`: the affinity in data set [3], expressed as Kd, was 0.0045 µM.
In the case of `Fc1ccc2nc(-c3ccc4cc[nH]c4c3)oc2n1`, the efflux ratio in the data set on P-gp is less than 3. Besides, the apparent permeability coefficient (Papp) with P-gp (Homo sapiens) is greater than 20 ×10⁻⁶ cm/s. This compound also displayed a concentration for half-maximal inhibition (IC50) in data set [1] of 0.0453 µM.
Taken in the same sequence, the figures for `CNc1ccc(-c2nc3ccc(F)nc3o2)cn1` were less than 3, greater than 20 ×10⁻⁶ cm/s and 0.102 µM.
